PubChem BioAssay AID2525 (Broad Institute, 2010)
Active and inactive are the calls of the source.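 The calls were made as follows: active = EC50 at most tenfold above the top concentration tested; inconclusive = flat fit with activity between 30% and 70%, or invalid fit; inactive = EC50 beyond tenfold above the top concentration.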

System: S. cerevisiae SKY197-pL101 polyadenylation reporter, beta-gal luminescence, 9 h
Experiment: polyadenylation inhibitors in yeast reporter, dose response, luminescence, S. cerevisiae SKY197-pL101 (AID 2525)

With `Nc1ncnc2c1ncn2C1OC(CO)CC1O` (stereo unspecified) the EC50 was > 50 µM (inactive).
